Data reported in PubChem BioAssay AID1845206 (Molecular Pharmacology Branch, DTP, NCI, 2023).
pIC50: −log10 of the molar value. Values joined by “and” are separate entries in the source; they are usually repeats but may differ in a detail not shown here. Equal entries are not always repeated. Active and inactive are the calls of the source. The calls were made as follows: active = viability on the fitted dose curve at most 10% of control; inactive = the rest.

Test system: NCI-H1618 multicellular tumor spheroid viability
Test: Anticancer human tumor NCI-H1618 cell line growth inhibition;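 also: spheroids exposed to agents for 7 days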
Conditions: for viability, T/C: stronger effect = lower value; for pIC50: curve of compound; for IC50: compound alone
Description: Multicellular complex tumor spheroid response to DNA repair inhibitors in combination with DNA-damaging drugs
This study explores the anticancer activities of DNA-damaging drugs and inhibitors of DNA damage repair, both as single agents and in combinations. Complex tumor spheroids comprised of malignant cells, endothelial cells and mesenchymal stem cells served as an in vitro model for human solid tumors. This model system incorporates physiologically relevant features and patient-derived or established malignant cell lines with clinically relevant genetic alterations from many tumor types. Twenty-six patient-derived or established malignant cell lines were evaluated representing sarcoma, melanoma, small cell lung cancer (SCLC), non-small cell lung cancer (NSCLC), as well as bladder, ovarian and pancreatic cancers. The concentration ranges selected for each drug and investigational agent were based upon clinically achievable concentrations if the clinical Cmax of the agent was known.
Compounds. The drugs and compounds olaparib (NSC753686), talazoparib (NSC767125), berzosertib (NSC777718), elimusertib (NSC800525), nedisertib (NSC802822), VX-984 (NSC792969), AZD-1390 (NSC803789), temozolomide (NSC362856), topotecan (NSC609699), trabectedin (NSC813783), staurosporine (NSC755774), and gemcitabine (NSC613327) were obtained from the National Cancer Institute (NCI) Developmental Therapeutics Program Chemical Repository. The FDA-approved anticancer drug set is available from the Developmental Therapeutics Program at https://dtp.cancer.gov/organization/dscb/obtaining/available_plates.htm. […] The stock solutions were prepared in dimethyl sulfoxide (DMSO, Sigma-Aldrich, St. Louis, MO, cat. D2650) at 400-fold the tested concentration and stored at -70 degrees C. Prior to their use, the stock solutions were diluted in fresh medium and the final DMSO concentration in the assay was 0.25% (v/v). All drugs and investigational agents were tested over a range starting from a high concentration at or near the clinical Cmax and decreasing in half-log increments. If the clinical Cmax for an agent had not been determined, the highest concentration tested was 10 microM.
Cell Lines. The patient-derived cancer cell (PDC) lines: 156681-154-R-J1-PDC, 283228-195-R-J1-PDC, 287954-098-R-J1-PDC, 292921-168-R-J2-PDC, 349418-098-R-PDC, 425362-245-T-J1-PDC, 556581-035-R-J1-PDC, and BL0293-F563-PDC were received from the NCI Patient-Derived Models Repository (PDMR, https://pdmr.cancer.gov). The established cell lines HS-SY-2 (RRID:CVCL_8719), MPNST, and SYO-1 (RRID:CVCL_7146) were obtained from the Sloan Kettering Institute. The alveolar soft parts sarcoma cell line ASPS-1 (RRID:CVCL_S738) was established at the NCI and grown from internal seed stocks. The following established cell lines were purchased from the American Type Culture Collection (ATCC, Manassas, VA): G-401 (ATCC, cat. CRL-1441, RRID:CVCL_0270), SW982 (ATCC, cat. HTB-93, RRID:CVCL_1734), VA-ES-BJ (ATCC, cat. CRL-2138, RRID:CVCL_1785), NCI-H719 (ATCC, cat. CRL-5837, RRID:CVCL_1582), NCI-H196 (ATCC, cat. CRL-5823, RRID:CVCL_1509), NCI-H841 (ATCC, cat. CRL-5845, RRID:CVCL_1595), NCI-H1618 (ATCC, cat. CRL-5879, RRID:CVCL_1480), NCI-H1876 (ATCC, cat. CRL-5902, RRID:CVCL_1503), DMS 114 (ATCC, cat. CRL-2066; RRID:CVCL_1174), NCI-H211 (ATCC, cat. CRL-5824; RRID:CVCL_1529), and SW 1271 (ATCC, cat. CRL-2177, RRID:CVCL_1716). The small cell lung cancer cell line COR-L88 was purchased from Sigma-Aldrich (cat. 92031917-1VL, RRID:CVCL_1141). The non-small cell lung cancer cell lines NCI-H226 (RRID:CVCL_1544) and NCI-H322M (RRID:CVCL_1557) were established at the NCI and grown from internal seed stocks. Pooled donor human umbilical vein endothelial cells (HUVEC, Lonza, cat. CC-2519) and human mesenchymal stem cells (hMSC, Lonza, cat. PT-2501) were purchased from Lonza (Walkersville, MD).
Cell Culture. All cells were maintained in an incubator at 37 degrees C and 5% CO2 with 95% humidity. […]

Compound	viability, T/C (compound 0.0316 µM)	viability, T/C (compound 0.1 µM)	viability, T/C (compound 0.316 µM)	viability, T/C (compound 1 µM)	viability, T/C (compound 3.16 µM)	viability, T/C (compound 10 µM)	pIC50	viability, T/C (compound 0.3 µM)	viability, T/C (compound 0.0949 µM)	viability, T/C (compound 0.949 µM)	viability, T/C (compound 3 µM)	further results
CC(C)n1c(=O)n(C)c2cnc3cc(F)c(-c4ccc(OCCCN5CCCCC5)nc4)cc3c21	92.6% and 97.3% and 82.8%	93.1% and 105%	85.2% and 96.6% and 100%	80.8% and 86.8%	75.5% and 87.7% and 75.1%	58.1% and 89.4% and 54.3%	< 5.00	–	–	–	–	outcome (compound 0.1 µM): inactive; outcome (compound 1 µM): inactive
CC1COCCN1c1cc(-c2ccnn2C)c2ccnc(-c3ccn[nH]3)c2n1 (stereo not given)	66.6% and 84.9% and 71.4%	36.7% and 35.1% and 32.9%	5.46% and 8.95% and 25.5%	1.99% and 2.55% and 7.57%	1.12% and 1.22% and 2.57%	2.74% and 1.68% and 1.22%	7.22 and 7.15 and 7.19	–	–	–	–	–
CC[C@@]1(O)C(=O)OCc2c1cc1n(c2=O)Cc2cc3c(CN(C)C)c(O)ccc3nc2-1	–	–	–	–	–	–	–	1.94% [middle of 9 runs]	–	–	–	IC50 (run of 11/07/2019): 9.37 nM [middle of 5 runs]
CNCc1ccc(-c2cc(-c3nc(-c4ccc(S(=O)(=O)C(C)C)cc4)cnc3N)on2)cc1	–	–	–	–	–	–	7.20 and 6.25 and 6.27	25.8% and 85.3% and 90%	25.7% and 95.3% and 102%	18.8% and 21.5% and 11.7%	20.3% and 0.47% and 4.41%	viability, T/C (compound 0.00949 µM): 97.2% and 99.1% and 104%; viability, T/C (compound 0.03 µM): 96.2% and 99.4% and 112%
COc1cc(C)[nH]c(=O)c1CN1CCc2c(Cl)cc(C(OC)C3COC3)c(Cl)c2C1=O (stereo not given)	83.9% and 102% and 58.1%	77.3% and 49.4%	67.3% and 73.7%	76.1% and 83% and 91.4%	69% and 82.6% and 93.8%	65.9% and 85.6% and 65.3%	< 5.00	–	–	–	–	outcome (compound 0.1 µM): inactive; outcome (compound 0.316 µM): inactive
COc1cc2c(cc1O)CCNC21CSC2c3c(OC(C)=O)c(C)c4c(c3C(COC1=O)N1C(O)C3Cc5cc(C)c(OC)c(O)c5C(C21)N3C)OCO4 (stereo not given)	–	–	–	–	–	–	–	–	–	–	–	viability, T/C (compound 30 pM): 95.9% [middle of 10 runs]; viability, T/C (compound 0.0003 µM): 5.95% [middle of 10 runs]; viability, T/C (compound 0.000949 µM): 3.52% [middle of 10 runs]; viability, T/C (compound 0.003 µM): 2.99% [middle of 10 runs]; IC50 (run of 12/16/2019): 0.124 nM [middle of 9 runs]
COc1ccc([C@@H](O)c2cc(-c3ncnc4cc(N5CCOCC5)ccc34)c(F)cc2Cl)nn1	84% and 103% and 101%	109% and 97.9% and 84.5%	108% and 103% and 83.4%	98.4% and 98.8% and 76%	84.1% and 83% and 83.7%	22.8% and 78.7% and 32.8%	5.22 and < 5.00 and 5.17	–	–	–	–	–
Cc1cc(C)c(CNC(=O)c2cc(-c3ccc(CN4CCOCC4)cc3)cc3c2cnn3C2CCCC2)c(=O)[nH]1	90.5% and 97.2% and 101%	103% and 101% and 107%	89.7% and 98.2% and 101%	94.6% and 94.8% and 99%	89% and 95.3% and 95.9%	76.2% and 95.1% and 88.9%	< 5.00	–	–	–	–	–
Cc1sc2c(c1C)C(c1ccc(Cl)cc1)=NC(CC(=O)Nc1ccc(O)cc1)c1nnc(C)n1-2 (stereo not given)	–	–	–	–	–	–	5.67 and 5.69 and 6.25	102% and 95.7% and 56.4%	100%	91.1% and 80.5% and 47%	33.8% and 35.4% and 16.8%	viability, T/C (compound 0.00949 µM): 109% (2×) and 110%; viability, T/C (compound 0.03 µM): 105% and 108% and 115%; outcome (compound 0.0949 µM): inactive
Cn1ncnc1[C@H]1c2n[nH]c(=O)c3cc(F)cc(c23)N[C@@H]1c1ccc(F)cc1	–	–	–	–	–	–	–	13.2% and 5.31% and 10.7%	88.2% and 22.8% and 79.8%	1.9% and 23.1% and 3.83%	1.81% and 2.3% and 3.2%	viability, T/C (compound 0.00949 µM): 92.2% and 26.7% and 101%; viability, T/C (compound 0.03 µM): 91.8% and 23.5% and 84.8%
Cn1nnc2c(C(N)=O)ncn2c1=O	–	–	–	–	19.8% [middle of 10 runs]	5.8% [middle of 10 runs]	–	–	–	–	–	viability, T/C (compound 31.6 µM): 10.4% [middle of 10 runs]
O=C(c1cc(Cc2n[nH]c(=O)c3ccccc23)ccc1F)N1CCN(C(=O)C2CC2)CC1	–	–	–	–	–	–	5.74 and 4.96 and 5.16	103% and 90.6%	98.1% and 105% and 94.9%	83.7% and 96.2% and 98.8%	23.2% and 98.6% and 91%	outcome (compound 0.3 µM): inactive; viability, T/C (compound 9.49 µM): 23.5% and 56.3% and 34.1%; viability, T/C (compound 30 µM): 25% and 3.78% and 9.4%
[2H]c1nc(C)nc([2H])c1-c1cc(NC[C@@H](C)c2cccc3c(C(=O)NC)ccnc23)ncn1	97% and 100% and 12.9%	98.5% and 98% and 8.24%	101% and 117%	96.4% and 101% and 142%	88.6% and 94% and 106%	97.2% and 102% and 91.8%	–	–	–	–	–	outcome (compound 0.316 µM): inactive
